Results as given in patent US11248234B2, “Herbicide-resistant hydroxyphenylpyruvate dioxygenases” (BASF SE, priority 2015, dated 2022).

Columns and labels:
[1] = test system: transgenic T1 Arabidopsis plants, Scenedesmus HPPD alanine 318 exchanged by glycine and leucine 350 substituted with methionine; assay: T1 spray application; format: in vivo, Arabidopsis thaliana; details: FIG. 3; pictures 8 days after treatment
Protocol: (§1) Wildtype plants were sprayed in parallel at each application rate (two lower pots below dashed line) whereas T1 plants are represented by the five upper pots. Pictures were taken 8 days after treatment.
(§2) Transgenic T1 Arabidopsis plants were sprayed with the indicated amount of HPPD inhibiting herbicide. The T1 spray application is a fast method to evaluate the potential of transgenic traits even though a segregating population and only one event of respective traits is tested.

[2] = test system: transgenic T1 Arabidopsis plants, Scenedesmus HPPD phenylalanine 363 exchanged by isoleucine; assay: T1 spray application; format: in vivo, Arabidopsis thaliana; details: FIG. 3; highest application rate
Protocol: as §1, §2

Cc1c(C(=O)c2cnn(C)c2O)ccc(S(C)(=O)=O)c1C1=NOCC1 [Inhibitor 1, [3-(4,5-dihydroisoxazol-3-yl)-2-methyl-4-methylsulfonyl-phenyl]-(5-hydroxy-1-methyl-pyrazol-4-yl)methanone]
tolerance of T1 plants to spray [1]: good tolerance | tolerance of T1 plants to spray [2]: highly tolerant
